Results on 30 substances are retold here after patent publication US9976141B2, “Compositions and methods for inhibiting gene expression of Hif2alpha” (Arrowhead Madison Inc., priority 2015, dated 2018).

This series relates to human EPAS1 (Hif2α) cDNA in psiCHECK2 (Renilla luciferase/EPAS1 fusion mRNA) in Hep3B cells. The experiment in a line: Efficacy screen of Hif2α RNAi triggers in vitro, dual-luciferase reporter assay (1 nM and 0.1 nM). It counts as cell-based. The settings on record: Hep3B cells co-transfected with EPAS1-psiCHECK2, Renilla luciferase normalized to firefly luciferase. The source says:
Candidate sequences were identified by in silico analysis and screened as chemically modified canonical siRNAs in vitro. For screening purposes, the human EPAS1 (Hif2α) cDNA sequence (accession #NM 001430) was synthesized and cloned (DNA 2.0, Menlo Park, Calif.) into a commercially-available reporter-based screening plasmid, psiCHECK2 (Promega, Madison, Wis.) which generated a Renilla luciferase/EPAS1 fusion mRNA. For RNAi trigger efficacy evaluation, Hep3B cells, a human hepatocellular carcinoma line, were plated at 10,000 cells per well in 96-well format. Each of the 187 EPAS1 RNAi triggers, in two subsets, was co-transfected at two concentrations, 1 nM and 0.1 nM, with 25 ng EPAS1-psiCHECK2 plasmid DNA per well and 0.2 μL LipoFectamine 2000 (Life Technologies) per well. Gene knockdown was determined by measuring Renilla luciferase levels normalized to the levels of constitutively-expressed firefly luciferase, also present on the psiCHECK-2 plasmid, using the Dual Luciferase Reporter Assay (Promega, Madison, Wis.) Table 5.

Strand notation (5' to 3'): a small letter for the sugar, then the base; units joined by * are phosphorothioate-linked, units joined directly phosphodiester-linked; [ ] holds rarer units or linkages, { } end groups; capitals alone tell only the bases. d = 2'-deoxy (DNA); m = 2'-O-methyl; f = 2'-fluoro

In the case of “2231 (sense fGmAfGmAfCmUfGmUfAmUfGmGfUmCfAmGfCmUfAdT; antisense dTfAmGfCmUfGmAfCmCfAmUfAmCfAmGfUmCfUmCdT*dT; siRNA) [compound 2231]”, the “Relative Rluc-Hif2α” value (0.1 nM RNAi trigger) is reported as 0.544 ± 0.368 and the “Relative Rluc-Hif2α” value (1 nM RNAi trigger) is recorded as 0.491 ± 0.198.
For the substance “2232 (sense fCmUfCmCfGmAfCmUfCmCfUmUfCmCfGmAfCmUfAdT; antisense dTfAmGfUmCfGmGfAmAfGmGfAmGfUmCfGmGfAmGdT*dT; siRNA) [compound 2232]”, the “Relative Rluc-Hif2α” value amounted to 0.684 ± 0.061 (0.1 nM RNAi trigger) and 0.468 ± 0.032 (1 nM RNAi trigger).
The corresponding values for “2233 (sense fUmCfCmGfAmCfUmCfCmCfAmGfCmAfUmUfCmGfAdT; antisense dTfCmGfAmAfUmGfCmUfGmGfGmAfGmUfCmGfGmAdT*dT; siRNA) [compound 2233]” are 0.913 ± 0.019 and 0.862 ± 0.125.
The corresponding values for “2234 (sense fCmGfAmCfUmCfCmCfAmGfCmAfUmUfCmGfAmGfAdT; antisense dTfCmUfCmGfAmAfUmGfCmUfGmGfGmAfGmUfCmGdT*dT; siRNA) [compound 2234]” are 0.508 ± 0.148 and 0.388 ± 0.046.
The corresponding values for “2235 (sense fGmAfCmUfCmCfCmAfGmCfAmUfUmCfGmAfGmCfAdT; antisense dTfGmCfUmCfGmAfAmUfGmCfUmGfGmGfAmGfUmCdT*dT; siRNA) [compound 2235]” are 0.743 ± 0.129 and 0.857 ± 0.090.
As for “2236 (sense fCmAfGmGfUmGfCmUfCmGfGmCfGmUfCmUfGmAfAdT; antisense dTfUmCfAmGfAmCfGmCfCmGfAmGfCmAfCmCfUmGdT*dT; siRNA) [compound 2236]”, the “Relative Rluc-Hif2α” value (0.1 nM RNAi trigger) is reported as 0.693 ± 0.071 and the “Relative Rluc-Hif2α” value (1 nM RNAi trigger) was 0.761 ± 0.042.
Taken in the same sequence, the figures for “2237 (sense fGmUfGmCfUmCfGmGfCmGfUmCfUmGfAmAfCmGfAdT; antisense dTfCmGfUmUfCmAfGmAfCmGfCmCfGmAfGmCfAmCdT*dT; siRNA) [compound 2237]” were 0.746 ± 0.029 and 0.978 ± 0.083.
On to “2238 (sense fUmCfGmGfCmGfUmCfUmGfAmAfCmGfUmCfUmCfAdT; antisense dTfGmAfGmAfCmGfUmUfCmAfGmAfCmGfCmCfGmAdT*dT; siRNA) [compound 2238]”, for which the “Relative Rluc-Hif2α” value by setting is: (0.1 nM RNAi trigger) 0.208 ± 0.023; (1 nM RNAi trigger) 0.148 ± 0.024.
Taken in the same sequence, the figures for “2239 (sense fGmGfCmGfUmCfUmGfAmAfCmGfUmCfUmCfAmAfAdT; antisense dTfUmUfGmAfGmAfCmGfUmUfCmAfGmAfCmGfCmCdT*dT; siRNA) [compound 2239]” were 0.225 ± 0.022 and 0.157 ± 0.017.
Taken in the same sequence, the figures for “2240 (sense fCmGfUmCfUmGfAmAfCmGfUmCfUmCfAmAfAmGfAdT; antisense dTfCmUfUmUfGmAfGmAfCmGfUmUfCmAfGmAfCmGdT*dT; siRNA) [compound 2240]” were 0.841 ± 0.048 and 0.845 ± 0.052.
Taken in the same sequence, the figures for “2241 (sense fAmAfAmAfGmGfAmGfUmAfGmCfUmCfGmGfAmGfAdT; antisense dTfCmUfCmCfGmAfGmCfUmAfCmUfCmCfUmUfUmUdT*dT; siRNA) [compound 2241]” were 0.385 ± 0.028 and 0.270 ± 0.068.
Regarding “2242 (sense fGmGfGmUfUmUfCmAfUmUfGmCfCmGfUmGfGmUfAdT; antisense dTfAmCfCmAfCmGfGmCfAmAfUmGfAmAfAmCfCmCdT*dT; siRNA) [compound 2242]”, the “Relative Rluc-Hif2α” value is listed as 0.411 ± 0.019 (0.1 nM RNAi trigger) and 0.222 ± 0.064 (1 nM RNAi trigger).
Taken in the same sequence, the figures for “2243 (sense fUmUfCmAfUmGfGmGfAmCfUmUfAmCfAmCfAmGfAdT; antisense dTfCmUfGmUfGmUfAmAfGmUfCmCfCmAfUmGfAmAdT*dT; siRNA) [compound 2243]” were 0.688 ± 0.059 and 0.694 ± 0.107.
The corresponding values for “2244 (sense fGmGfGmAfCmUfUmAfCmAfCmAfGmGfUmGfGmAfAdT; antisense dTfUmCfCmAfCmCfUmGfUmGfUmAfAmGfUmCfCmCdT*dT; siRNA) [compound 2244]” are 0.760 ± 0.050 and 0.915 ± 0.115.
The corresponding values for “2245 (sense fAmCfAmCfAmGfGmUfGmGfAmGfCmUfAmAfCmAfAdT; antisense dTfUmGfUmUfAmGfCmUfCmCfAmCfCmUfGmUfGmUdT*dT; siRNA) [compound 2245]” are 0.761 ± 0.039 and 0.727 ± 0.066.
Regarding “2246 (sense fGmAfGmCfUmAfAmCfAmGfGmAfCmAfUmAfGmUfAdT; antisense dTfAmCfUmAfUmGfUmCfCmUfGmUfUmAfGmCfUmCdT*dT; siRNA) [compound 2246]”, the “Relative Rluc-Hif2α” value (0.1 nM RNAi trigger) worked out at 0.509 ± 0.044 and the “Relative Rluc-Hif2α” value (1 nM RNAi trigger) was found to be 0.327 ± 0.042.
As to “2247 (sense fGmCfUmAfAmCfAmGfGmAfCmAfUmAfGmUfAmUfAdT; antisense dTfAmUfAmCfUmAfUmGfUmCfCmUfGmUfUmAfGmCdT*dT; siRNA) [compound 2247]”, the “Relative Rluc-Hif2α” value by setting is: (0.1 nM RNAi trigger) 0.439 ± 0.082; (1 nM RNAi trigger) 0.231 ± 0.048.
The corresponding values for “2248 (sense fCmUfAmAfCmAfGmGfAmCfAmUfAmGfUmAfUmCfAdT; antisense dTfGmAfUmAfCmUfAmUfGmUfCmCfUmGfUmUfAmGdT*dT; siRNA) [compound 2248]” are 0.215 ± 0.007 and 0.148 ± 0.036.
Taken in the same sequence, the figures for “2249 (sense fGmGfAmCfAmUfAmGfUmAfUmCfUmUfUmGfAmCfAdT; antisense dTfGmUfCmAfAmAfGmAfUmAfCmUfAmUfGmUfCmCdT*dT; siRNA) [compound 2249]” were 0.303 ± 0.042 and 0.190 ± 0.028.
Take “2250 (sense fUmCfUmUfUmGfAmCfUmUfCmAfCmUfCmAfUmCfAdT; antisense dTfGmAfUmGfAmGfUmGfAmAfGmUfCmAfAmAfGmAdT*dT; siRNA) [compound 2250]”: the “Relative Rluc-Hif2α” value is 0.255 ± 0.020 (0.1 nM RNAi trigger) and 0.139 ± 0.046 (1 nM RNAi trigger).
With “2251 (sense fUmCfAmCfUmCfAmUfCmCfCmUfGmCfGmAfCmCfAdT; antisense dTfGmGfUmCfGmCfAmGfGmGfAmUfGmAfGmUfGmAdT*dT; siRNA) [compound 2251]”, the “Relative Rluc-Hif2α” value worked out at 0.857 ± 0.087 (0.1 nM RNAi trigger) and 0.872 ± 0.121 (1 nM RNAi trigger).
With “2252 (sense fGmAfGmAfUmUfCmGfUmGfAmGfAmAfCmCfUmGfAdT; antisense dTfCmAfGmGfUmUfCmUfCmAfCmGfAmAfUmCfUmCdT*dT; siRNA) [compound 2252]”, the “Relative Rluc-Hif2α” value runs as follows: (0.1 nM RNAi trigger) 0.696 ± 0.096; (1 nM RNAi trigger) 0.592 ± 0.061.
Taken in the same sequence, the figures for “2253 (sense fUmUfCmGfUmGfAmGfAmAfCmCfUmGfAmGfUmCfAdT; antisense dTfGmAfCmUfCmAfGmGfUmUfCmUfCmAfCmGfAmAdT*dT; siRNA) [compound 2253]” were 0.646 ± 0.144 and 0.564 ± 0.043.
For “2254 (sense fUmCfGmUfGmAfGmAfAmCfCmUfGmAfGmUfCmUfAdT; antisense dTfAmGfAmCfUmCfAmGfGmUfUmCfUmCfAmCfGmAdT*dT; siRNA) [compound 2254]”, the “Relative Rluc-Hif2α” value is, setting by setting: (0.1 nM RNAi trigger) 0.756 ± 0.080; (1 nM RNAi trigger) 0.641 ± 0.054.
The corresponding values for “2255 (sense fGmAfCmAfUmGfUmCfCmAfCmAfGmAfGmCfGmGfAdT; antisense dTfCmCfGmCfUmCfUmGfUmGfGmAfCmAfUmGfUmCdT*dT; siRNA) [compound 2255]” are 0.653 ± 0.130 and 0.721 ± 0.055.
Taken in the same sequence, the figures for “2256 (sense fGmCfGmGfGmAfCmUfUmCfUmUfCmAfUmGfAmGfAdT; antisense dTfCmUfCmAfUmGfAmAfGmAfAmGfUmCfCmCfGmCdT*dT; siRNA) [compound 2256]” were 0.796 ± 0.028 and 0.765 ± 0.124.
The corresponding values for “2257 (sense fGmGfAmUfGmAfAmGfUmGfCmAfCmGfGmUfCmAfAdT; antisense dTfUmGfAmCfCmGfUmGfCmAfCmUfUmCfAmUfCmCdT*dT; siRNA) [compound 2257]” are 0.647 ± 0.127 and 0.802 ± 0.044.
On to “2258 (sense fCmAfCmGfGmUfCmAfCmCfAmAfCmAfGmAfGmGfAdT; antisense dTfCmCfUmCfUmGfUmUfGmGfUmGfAmCfCmGfUmGdT*dT; siRNA) [compound 2258]”, for which the “Relative Rluc-Hif2α” value is, setting by setting: (0.1 nM RNAi trigger) 0.882 ± 0.098; (1 nM RNAi trigger) 0.972 ± 0.168.
Taken in the same sequence, the figures for “2259 (sense fUmCfAmCfCmAfAmCfAmGfAmGfGmCfCmGfUmAfAdT; antisense dTfUmAfCmGfGmCfCmUfCmUfGmUfUmGfGmUfGmAdT*dT; siRNA) [compound 2259]” were 0.743 ± 0.086 and 0.836 ± 0.110.
Taken in the same sequence, the figures for “2260 (sense fCmAfCmCfAmAfCmAfGmAfGmGfCmCfGmUfAmCfAdT; antisense dTfGmUfAmCfGmGfCmCfUmCfUmGfUmUfGmGfUmGdT*dT; siRNA) [compound 2260]” were 0.861 ± 0.031 and 1.030 ± 0.187.
